These results are taken from US10703748B2, “Diazanaphthalen-3-yl carboxamides and preparation and use thereof” (Samumed, LLC, priority 2017, dated 2020).

SMILES strings stand for the structures.

For assay [1], the system named is α-smooth muscle actin (aSMA) positive LL29 cells. As to the kind of experiment: Inhibition of the fibrotic process: αSMA staining in TGF-β1 treated LL29 fibroblasts from IPF patients. The conditions noted are these: Homo sapiens, Fibroblast; for EC50: 96 h; for inhibition at 10 µM: read-out: percentage in parentheses after EC50 >10.
In assay [2] the test system is Tau phosphorylation at Ser396 (pSer396). Briefly: Tau phosphorylation at Ser396 (pSer396) in SH-SY5Y cells, ELISA / western blot.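 Further: decrease in pSer396 Tau measured in lysates of treated cells by colorimetric ELISA or chemiluminescent western blot, same pSer396 antibody for both.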 Format: cell-based, human. The conditions noted are these: Homo sapiens; SH-SY5Y cells, overnight (16-18 h); read-out: pSer396 Tau EC50. For orientation: An ELISA detects its analyte on a solid surface through an enzyme-linked reagent.
Procedure: Two days before treatment, cells were seeded onto 96 well plates at 5×10^4 cells/well.
The above synthesized compounds were screened using the cell assay procedure to assess decrease Tau phosphorylation at Ser396 (pSer396) described below.
Cells were lysed with RIPA buffer complemented with phosphatase and protease inhibitors then lysates were spun down at 12,000 g for 10 min to remove any cellular debris.
Assay [3] has as its system IL-6. As to the kind of experiment: IL-6 inhibition in LPS-stimulated human peripheral blood mononuclear cells (HTRF). The conditions noted are these: Homo sapiens, PBMC; for EC50: 22 h; for inhibition at 10 µM: read-out: percentage in parentheses after EC50 >10.
Assay [4] addresses DYRK1A kinase (Homo sapiens, UniProt Q13627). Briefly: DYRK1A kinase activity (Ser/Thr 18 peptide Z-lyte FRET assay).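 Further: kinase activity read as coumarin/fluorescein emission ratio after development step, with unphosphorylated and phosphorylated peptide forms setting 0% and 100% controls, values from dose-response curves.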 To be noted: recombinant DYRK1A, 30 μM ATP, one hour at room temperature. Format: biochemical.
Assay [5] relates to SW480 colon carcinoma cells. As to the kind of experiment: Cell viability assay (CellTiter-Glo). The conditions noted are these: Homo sapiens; for EC50: SW480, 96 h; for inhibition at 10 µM: SW480, read-out: percent inhibition at 10 μM. (Cellular ATP, detected with luciferase, serves as a proxy for viable cell number.)
Procedure: Representative compounds were screened using the assay procedure to assess the effect on cell viability as described below.
SW480 colon carcinoma cells were transduced with a lentiviral vector expressing luciferase with a human Sp5 promoter consisting of a sequence of eight TCF/LEF binding sites. […] These stably transduced SW480 cells were expanded in cell culture and used for all further screening activities. Each compound was dissolved in DMSO as a 10 mM stock and used to prepare compound source plates.
For the Cell Viability Assays, the cells were plated at 2,000 cells/well in 384-well plates with a DMEM medium containing 1% fetal bovine serum, and 1% Penicillin-Streptomycin and incubated for four days hours at 37° C. and 5% CO2. Eight replicates of DMSO-treated cells served as controls and cells treated with compound were performed in duplicate.
After incubation, 10 μL of CellTiter-Glo (Promega) was added to each well allowed to incubate for approximately 12 minutes. This reagent “results in cell lysis and generation of a luminescent signal proportional to the amount of ATP present. The amount of ATP is directly proportional to the number of cells present in culture, in agreement with previous reports. The CellTiter-Glo Assay generates a “glow-type” luminescent signal, produced by the luciferase reaction (Promega.com)”.
Dose-response curves were generated and EC50 concentration values were calculated using non-linear regression curve fit in the GraphPad Prism (San Diego, Calif.) or Dotmatics' Studies Software (Bishops Stortford, UK).
Assay [6] relates to secreted cytokines TNFα, IL-6 and KC-GRO. As to the kind of experiment: Secreted cytokines in Lipopolysaccharide-stimulated BV-2 cells (Table 9 does not say which cytokine). Format: cell-based, mouse. The conditions noted are these: Mus musculus, BV-2, 5 h; read-out: EC50.
In assay [7] the target is GSK3β kinase (Homo sapiens, UniProt P49841). Briefly: GSK3β kinase activity (Ser/Thr 09 peptide Z-lyte FRET assay). Type of assay: biochemical. The conditions noted are these: recombinant kinase, 46 μM ATP, one hour at room temperature; read-out: EC50.
For assay [8], the system named is Wnt-responsive Sp5-Luc reporter in SW480 colon carcinoma cells. As to the kind of experiment: Screening assay for Wnt activity (Sp5-Luc reporter gene assay). To be noted: Homo sapiens; for EC50: SW480; for inhibition at 10 µM: SW480, read-out: percent inhibition at 10 μM.

GSK3β kinase, sequence (P49841 whole entry): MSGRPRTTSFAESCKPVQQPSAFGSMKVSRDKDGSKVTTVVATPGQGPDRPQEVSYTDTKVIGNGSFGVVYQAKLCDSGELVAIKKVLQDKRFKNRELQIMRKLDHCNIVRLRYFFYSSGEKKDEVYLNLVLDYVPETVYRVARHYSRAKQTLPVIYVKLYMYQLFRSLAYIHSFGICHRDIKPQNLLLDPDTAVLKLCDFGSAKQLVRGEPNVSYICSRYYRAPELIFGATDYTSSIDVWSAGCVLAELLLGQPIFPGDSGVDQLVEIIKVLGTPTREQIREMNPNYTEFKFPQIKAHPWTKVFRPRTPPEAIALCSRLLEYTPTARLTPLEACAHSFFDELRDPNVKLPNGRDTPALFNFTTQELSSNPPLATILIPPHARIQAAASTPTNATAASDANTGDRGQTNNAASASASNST

In general, EC50 refers to the concentration that produces a half-maximal response. For the molecule `CC(C(=O)Nc1cc2cc(-c3cncn3C)ncc2cn1)N1CCCC1` (centres unmarked) [Compound 4041, N-(6-(1-Methyl-1H-imidazol-5-yl)-2,7-naphthyridin-3-yl)-2-(pyrrolidin-1-yl) propanamide], the half-maximal effective concentration (EC50) was 3.49 µM in assay [1]; 0.102 µM in assay [2]; > 10 µM in assay [3]; 0.63 µM in assay [4]; 4.54 µM in assay [5]; 3.9 µM in assay [6]. The figures for the 50% effective concentration (EC50) in assay [7] and in assay [8] were 0.019 µM and 0.291 µM, respectively. For the same molecule, in assay [3], the inhibition at 10 µM turned out to be 0%.

`COCCN[C@H]1CC[C@H](C(=O)Nc2cc3nc(-c4cnn(C)c4)ccc3cn2)CC1` [Compound 4536, trans-4-((2-Methoxyethyl)amino)-N-(2-(1-methyl-1H-pyrazol-4-yl)-1,6-naphthyridin-7-yl) cyclohexane-1-carboxamide]: the 50% effective concentration (EC50) in assay [1] is 1.14 µM; in assay [2], > 10 µM; in assay [3], 3.02 µM; in assay [4], 0.014 µM; in assay [5] it was > 10 µM; in assay [6], 0.089 µM. Also, the half-maximal effective concentration (EC50) worked out at 0.319 µM in assay [7] and 0.832 µM in assay [8]. Also, the inhibition at 10 µM in assay [5] amounted to 45.9%.

Turning to `Cn1cc(-c2cnc3cnc(NC(=O)C4CCNCC4)cc3c2)cn1` [Compound 2731, N-(3-(1-Methyl-1H-pyrazol-4-yl)-1,7-naphthyridin-6-yl)piperidine-4-carboxamide], the EC50 in assay [1] is 5.32 µM; in assay [2] it was > 10 µM; in assay [3] it was > 10 µM; in assay [4] it was 0.021 µM; in assay [5], > 10 µM; in assay [6], 1.2 µM. Also, the 50% effective concentration (EC50) is 5.51 µM in assay [7] and > 10 µM in assay [8]. Moreover, the inhibition at 10 µM in assay [3] amounted to 2.8%; in assay [5], 26.5%; in assay [8], 30.9%.

As to `Cn1cc(-c2ccc3cnc(NC(=O)C4CC4)nc3c2)cn1` [Compound 909, N-(7-(1-Methyl-1H-pyrazol-4-yl)quinazolin-2-yl)cyclopropanecarboxamide], the EC50 in assay [1] is 1.39 µM; in assay [2], 0.372 µM; in assay [3], 4.86 µM; in assay [4], 0.013 µM; in assay [5] it was > 10 µM; in assay [6] it was 1.9 µM. For the same molecule, the concentration giving a half-maximal response (EC50) in assay [7] is 0.025 µM; in assay [8] it was > 10 µM. The inhibition at 10 µM in assay [5] came to 45.6%; in assay [8] it was 56.1%.

As to `O=C(Nc1cc2nc(-c3cccnc3)ccc2cn1)C1CC1` [Compound 764, N-(2-(Pyridin-3-yl)-1,6-naphthyridin-7-yl)cyclopropanecarboxamide], the EC50 was > 10 µM in assay [1]; 0.807 µM in assay [2]; > 10 µM in assay [3]; 0.008 µM in assay [4]; > 10 µM in assay [5]; 5.1 µM in assay [6]. For the same molecule, the 50% effective concentration (EC50) in assay [7] is 0.243 µM; in assay [8], > 10 µM. Besides, the inhibition at 10 µM came out at 5.8% in assay [1], 4.3% in assay [3], 24.7% in assay [5] and 27.5% in assay [8].

Take `CN(C)[C@H]1CC[C@H](C(=O)Nc2cc3cc(-c4cncs4)ncc3cn2)CC1` [Compound 4239, trans-4-(dimethylamino)-N-(6-(thiazol-5-yl)-2,7-naphthyridin-3-yl) cyclohexane-1-carboxamide]: the EC50 was > 10 µM in assay [1]; 0.491 µM in assay [2]; > 10 µM in assay [3]; 0.005 µM in assay [4]; > 10 µM in assay [5]; 1.7 µM in assay [6]. For the same molecule, the EC50 is 0.187 µM in assay [7] and > 10 µM in assay [8]. For the same molecule, the inhibition at 10 µM in assay [1] turned out to be 50%; in assay [3] it was 10.5%; in assay [5], 27.6%; in assay [8], 41.9%.

With `O=C(Nc1cc2nc(-c3cncs3)ccc2cn1)[C@H]1CC[C@H](CN2CC(F)C2)CC1` [Compound 613, trans-4-((3-Fluoroazetidin-1-yl)methyl)-N-(2-(thiazol-5-yl)-1,6-naphthyridin-7-yl)cyclohexane-1-carboxamide], the EC50 is 0.65 µM in assay [1]; 0.157 µM in assay [2]; 1.1 µM in assay [3]; 0.003 µM in assay [4]; 3.6 µM in assay [5]; 0.106 µM in assay [6]. In addition, the figures for the EC50 in assay [7] and in assay [8] were 0.219 µM and 8.81 µM, respectively.

As for `Cc1ncc(-c2ccc3cnc(NC(=O)C4CCN(C)CC4)cc3n2)s1` [Compound 640, 1-Methyl-N-(2-(2-methylthiazol-5-yl)-1,6-naphthyridin-7-yl)piperidine-4-carboxamide], the concentration giving a half-maximal response (EC50) in assay [1] was 0.671 µM; in assay [2] it was 0.877 µM; in assay [3] it was 7.34 µM; in assay [4], 0.038 µM; in assay [5], > 10 µM; in assay [6], 0.504 µM. Further, the EC50 in assay [7] is 0.401 µM; in assay [8] it was > 10 µM. Also, the values for the inhibition at 10 µM in assay [5] and in assay [8] were 40.4% and 42.9%, respectively.

As to `CC(C(=O)Nc1cc2nc(-c3cnn(C)c3)ccc2cn1)N1CCCCC1` (centres unmarked) [Compound 112, N-(2-(1-Methyl-1H-pyrazol-4-yl)-1,6-naphthyridin-7-yl)-2-(piperidin-1-yl)propanamide], the EC50 in assay [1] is > 10 µM; in assay [2], 1.1 µM; in assay [3], 9.4 µM; in assay [4], 0.088 µM; in assay [5], 7.79 µM; in assay [6], 5.4 µM. The concentration for a half-maximal effect (EC50) in assay [7] came out at 0.062 µM; in assay [8], 3.65 µM. In addition, the inhibition at 10 µM in assay [1] was found to be 13.8%.

`Cc1ncc(-c2ccc3cnc(NC(=O)C(C)N4CCCC4)cc3n2)n1C` (centres unmarked) [Compound 4544, N-(2-(1,2-Dimethyl-1H-imidazol-5-yl)-1,6-naphthyridin-7-yl)-2-(pyrrolidin-1-yl)propanamide]: the EC50 in assay [1] came out at 1.09 µM; in assay [2] it was 0.076 µM; in assay [3], 7.77 µM; in assay [4] it was 0.033 µM; in assay [5] it was 5.61 µM; in assay [6], 0.353 µM. Moreover, the concentration for a half-maximal effect (EC50) in assay [7] amounted to 0.018 µM; in assay [8], 0.059 µM.

As to `O=C(Nc1cc2cc(-c3cnn4c3CN(CCF)CC4)ncc2cn1)C1CCC(F)(F)CC1` [Compound 3944, 4,4-Difluoro-N-(6-(5-(2-fluoroethyl)-4,5,6,7-tetrahydropyrazolo[1,5-a]pyrazin-3-yl)-2,7-naphthyridin-3-yl)cyclohexane-1-carboxamide], the EC50 in assay [1] is 0.416 µM; in assay [2], 0.428 µM; in assay [3] it was > 10 µM; in assay [4], 0.006 µM; in assay [5] it was 7.29 µM; in assay [6], 0.471 µM. Besides, the EC50 in assay [7] amounted to 0.018 µM; in assay [8], 0.962 µM. The inhibition at 10 µM in assay [3] turned out to be 22.2%.

As for `Cn1cc(-c2ccc3cnc(NC(=O)CCc4ccccc4)nc3c2)cn1` [Compound 1101, N-(7-(1-Methyl-1H-pyrazol-4-yl)quinazolin-2-yl)-3-phenylpropanamide], the EC50 in assay [1] was > 10 µM; in assay [2], 9.5 µM; in assay [3], > 10 µM; in assay [4] it was 0.02 µM; in assay [5], 4.48 µM; in assay [6] it was 3.1 µM. Moreover, the EC50 was found to be 0.055 µM in assay [7] and 2.28 µM in assay [8]. Further, the figures for the inhibition at 10 µM in assay [1] and in assay [3] were 12.7% and 10.6%, respectively.

Regarding `Cc1nnc(-c2ccc3cnc(NC(=O)C4CCN(C(=O)c5ccccc5)CC4)nc3c2)s1` [Compound 1625, 1-Benzoyl-N-(7-(5-methyl-1,3,4-thiadiazol-2-yl)quinazolin-2-yl)piperidine-4-carboxamide], the half-maximal effective concentration (EC50) in assay [1] was 1.77 µM; in assay [2], 0.402 µM; in assay [3] it was > 10 µM; in assay [4] it was 0.025 µM; in assay [5] it was > 10 µM; in assay [6], 0.436 µM. The half-maximal effective concentration (EC50) in assay [7] was 0.008 µM; in assay [8] it was > 10 µM. For the same molecule, the inhibition at 10 µM is 4% in assay [3], 18.8% in assay [5] and 37.3% in assay [8].

As to `CN1CCC(N(C)c2cc(C(=O)Nc3ncc4ccc(-c5cn(C)nn5)cc4n3)ccn2)CC1` [Compound 1288, 2-(Methyl(1-methylpiperidin-4-yl)amino)-N-(7-(1-methyl-1H-1,2,3-triazol-4-yl)quinazolin-2-yl)isonicotinamide], the concentration giving a half-maximal response (EC50) is 8.01 µM in assay [1]; 10 µM in assay [2]; > 10 µM in assay [3]; 0.006 µM in assay [4]; 1.09 µM in assay [5]; 6.1 µM in assay [6]. Further, the EC50 in assay [7] came to 0.177 µM; in assay [8], 0.059 µM. Besides, in assay [3], the inhibition at 10 µM turned out to be 9.8%.
